Laboratory results reported in ChEMBL document CHEMBL6127061, “Discovery of orally bioavailable ALK PROTACs based ceritinib against ALK positive cancers” (Eur J Med Chem, 2024).

How the values were obtained:
[1] = Half life in ICR mouse at 1 mg/kg, iv measured upto 24 hrs by LC-MS/MS analysis; type: ADME, organism-based; details: in vivo
[2] = Tmax in ICR mouse at 1 mg/kg, iv measured upto 24 hrs by LC-MS/MS analysis; type: ADME, organism-based; details: in vivo
[3] = Cmax in ICR mouse at 1 mg/kg, iv measured upto 24 hrs by LC-MS/MS analysis; type: ADME, organism-based; details: in vivo
[4] = AUC(0 to 24 hrs) in ICR mouse at 1 mg/kg, iv measured upto 24 hrs by LC-MS/MS analysis; type: ADME, organism-based; details: in vivo
[5] = AUCinfinity in ICR mouse at 1 mg/kg, iv measured upto 24 hrs by LC-MS/MS analysis; type: ADME, organism-based; details: in vivo
[6] = MRT(0 to t) in ICR mouse at 1 mg/kg, iv measured upto 24 hrs by LC-MS/MS analysis; type: ADME, organism-based; details: in vivo
[7] = MRTinfinity in ICR mouse at 1 mg/kg, iv measured upto 24 hrs by LC-MS/MS analysis; type: ADME, organism-based; details: in vivo
[8] = Half life in ICR mouse at 10 mg/kg, po measured upto 24 hrs by LC-MS/MS analysis; type: ADME, organism-based; details: in vivo
[9] = Tmax in ICR mouse at 10 mg/kg, po measured upto 24 hrs by LC-MS/MS analysis; type: ADME, organism-based; details: in vivo
[10] = Cmax in ICR mouse at 10 mg/kg, po measured upto 24 hrs by LC-MS/MS analysis; type: ADME, organism-based; details: in vivo
[11] = AUC(0 to 24 hrs) in ICR mouse at 10 mg/kg, po measured upto 24 hrs by LC-MS/MS analysis; type: ADME, organism-based; details: in vivo
[12] = AUCinfinity in ICR mouse at 10 mg/kg, po measured upto 24 hrs by LC-MS/MS analysis; type: ADME, organism-based; details: in vivo
[13] = MRT(0 to t) in ICR mouse at 10 mg/kg, po measured upto 24 hrs by LC-MS/MS analysis; type: ADME, organism-based; details: in vivo
[14] = MRTinfinity in ICR mouse at 10 mg/kg, po measured upto 24 hrs by LC-MS/MS analysis; type: ADME, organism-based; details: in vivo
[15] = Oral bioavailability in ICR mouse at 10 mg/kg measured upto 24 hrs by LC-MS/MS analysis; type: ADME, organism-based; details: in vivo
[16] = Drug concentration in ICR mouse at 10 mmg/kg, po measured after 0.5 to 24 hrs; type: ADME, organism-based; details: in vivo, 10 mg/kg, time 0.5-24 hrs
[17] = microsomes, 1 h, 1.5 µM
Description: Metabolic stability in liver microsomes (unknown origin) at 1.5 uM measured upto 60 mins in presence of NADPH by LC-MS/MS analysis

[18] = human, plasma, 1 h
Description: Metabolic stability in human plasma measured upto 60 mins in presence of NADPH by LC-MS/MS analysis

SMILES	half-life [1]	Tmax [2]	Cmax [3]	AUC(0-t) at 24 h [4]	AUC(0-inf) [5]	MRT last at 24 h [6]	MRT inf [7]	half-life [8]	Tmax [9]	Cmax [10]	AUC(0-t) at 24 h [11]	AUC(0-inf) [12]	MRT last at 24 h [13]	MRT inf [14]	bioavailability [15]	Drug uptake [16]	Stability [17]	Stability [18]
Cc1cc(Nc2ncc(Cl)c(Nc3ccccc3S(=O)(=O)C(C)C)n2)c(OC(C)C)cc1C1CCN(C2CN(C3CCN(c4ccc5c(c4)C(=O)N(C4CCC(=O)NC4=O)C5=O)CC3)C2)CC1 (stereo not given)	10.8 h	4.98 min	3000 ng/mL	17600 ng·h/mL	21700 ng·h/mL	7.19 h	13.2 h	11.2 h	4 h	1710 ng/mL	23900 ng·h/mL	30800 ng·h/mL	8.61 h	15.7 h	14.2%	400 ng/mL	Stable	Stable
Cc1cc(Nc2ncc(Cl)c(Nc3ccccc3S(=O)(=O)C(C)C)n2)c(OC(C)C)cc1C1CCN(C2CCN(C3CN(c4ccc5c(c4)C(=O)N(C4CCC(=O)NC4=O)C5=O)C3)CC2)CC1 (stereo not given)																	Stable	Stable
